# Data from patent US4649153A, “5,6-Dihydro-4H-cyclopenta(b)thiophene-6-carboxylic acids, preparation processes and medicines containing them” (Lipha, Lyonnaise Industrielle Pharmaceutique, priority 1984, dated 1987).
# Entries after “also recorded” stand apart in the source; their conditions may differ. Where two headings read alike, the source gives them in different places.
# Assays:
# carrageenan edema = experiment: Carrageenan edema test (Winter et al.), rat back paw, anti-inflammatory activity; type: in vivo, rats (male); details: for ED30: Rattus norvegicus, read-out: Carrageenan edema ED 30
# Experimental: Edema of a back paw was caused in male rats by subplantar injection of a 1% suspension of carrageenan in apyrogenic physiological solute. Measurement of the edema by plethysmography occurred 3 hours later. The products studied were administered orally 1 hour before the carrageenan injection. The protection conferred by the treatment was determined by calculation of ED 30 (dose moderating the edema 30% in relation to untreated animals).
# UV erythema = experiment: Protection from UV erythema (Winter et al.), early inflammation; type: in vivo, guinea pigs; details: Cavia porcellus, read-out: Protection from UV ED 50
# Experimental: White guinea pigs having their backs freshly depilated were radiated individually by exposure to the radiation of a UV lamp placed 25 cm above the animal's back for 1 min 30 sec. The zone to be radiated was delimited by a covering pierced with circular holes wrapping each animal. The erythema was visually marked 2 hours after exposure to radiation. The guinea pigs were treated orally with the test products 1 hour after exposure to UV.
# [1] = Acute oral toxicity (LD50), mortality recorded 2 weeks later; details: mouse, in vivo, Table III, Swiss mice
# Experimental: Lethal doses 50 (LD50) were determined by oral administration in Swiss mice. Mortality was recorded 2 weeks later.
# [2] = Table II, oral, 1 hour before carrageenan, rats, dose moderating edema 30%
# [3] = Table II, oral, 1 hour after UV exposure, guinea pigs, dose reducing erythema 50%
# [4] = Table I, oral, 1 hour before carrageenan, rats, edema measured 3 hours later, dose moderating edema 30%
# [5] = Table I, oral, 1 hour after UV exposure, guinea pigs, erythema marked 2 hours after exposure, dose reducing erythema 50%
SMILES,ED30 (carrageenan edema; [2]),ED50 (UV erythema; [3]),ED30 (carrageenan edema; [4]),ED50 (UV erythema; [5]),further results
"O=C(c1ccccc1)c1cc2c(s1)CCC2C(=O)O (stereo not shown) [2-Benzoyl-5,6-dihydro-4H cyclopenta[b]thiophene-4-carboxylic, reference compound]",> 30 mg/kg,> 50 mg/kg,–,–,–
"CC(C)Cc1cc2c(s1)CCC2C(=O)O (stereo not shown) [2-Isobutyl-5,6-dihydro-4H cyclopenta[b]thiophene-4-carboxylic, reference compound]",> 30 mg/kg,> 50 mg/kg,–,–,–
"CC(C)Cc1sc2c(c1C(=O)c1ccccc1)C(C(=O)O)CC2 (stereo not shown) [3-Benzoyl-2-isobutyl-5,6-dihydro-4Hcyclopenta[b]thio-phene-4-carboxylic acid, reference compound]",> 30 mg/kg,> 50 mg/kg,–,–,–
"Cc1sc2c(c1C(=O)c1ccccc1)C(C(=O)O)CC2 (stereo not shown) [3-benzoyl-2-methyl-5,6-dihydro-4H-cyclopenta[b]thiophene-4-carboxylic acid, reference compound]",> 30 mg/kg,> 50 mg/kg,–,–,–
"Cc1sc2c(c1C(=O)c1ccccc1)CCC2C(=O)O (stereo not shown) [Example 7, 3-Benzoyl-2-methyl-5,6-dihydro-4H-cyclopenta[b]thiophene-6-carboxylic acid]",–,0.4 mg/kg,0.7 mg/kg,0.4 mg/kg,"Carrageenan edema ED 30 (carrageenan edema; [2]): 0.7 mg/kg; activity compared with Indomethacin and with isomeric 4-carboxylic acids (in words) (carrageenan edema; carrageenan edema, UV protection and Randall and Selitto tests): greater than that of Indomethacin; also recorded: considerably greater than that of 5,6-dihydro-4H-cyclopenta[b]thiophene-4-carboxylic isomeric acids; LD50 at 336 h [1]: 275 mg/kg"
"Cc1sc2c(c1C(=O)c1cccs1)CCC2C(=O)O (stereo not shown) [Example 10, 2-Methyl 3-(2-thenoyl)-5,6-dihydro-4H-cyclopenta[b]thiophene-6-carboxylic acid]",–,–,3 mg/kg,0.2 mg/kg,LD50 at 336 h [1]: 275 mg/kg
"Cc1sc2c(c1C(=O)c1ccc(F)cc1)CCC2C(=O)O (stereo not shown) [Example 21, 3-(4-Fluorobenzoyl)-2-methyl-5,6-dihydro-4H-cyclopenta[b]thiophene-6-carboxylic acid]",–,–,2.4 mg/kg,0.4 mg/kg,–
"Cc1sc2c(c1C(=O)c1ccc(N(C)C)cc1)CCC2C(=O)O (stereo not shown) [Example 27, 3-(4-Dimethylaminobenzoyl)-2-methyl-5,6-dihydro-4H-cyclopenta[b]thiophene-6-carboxylic acid]",–,–,1.3 mg/kg,0.6 mg/kg,–
"CC(C)Cc1sc2c(c1C(=O)c1ccccc1)CCC2C(=O)O (stereo not shown) [Example 32, 3-Benzoyl-2-isobutyl-5,6-dihydro-4H-cyclopenta[b]thiophene-6-carboxylic acid]",–,–,> 50 mg/kg,> 50 mg/kg,–
"CCc1sc2c(c1C(=O)c1ccccc1)CCC2C(=O)O (stereo not shown) [Example 38, 3-Benzoyl-2-ethyl-5,6-dihydro-4H-cyclopenta[b]thiophene-6-carboxylic acid]",–,–,6 mg/kg,2 mg/kg,–
"COc1ccc2c(c1)c(CC(=O)O)c(C)n2C(=O)c1ccc(Cl)cc1 [INDOMETHACIN, 1-(4-chlorobenzoyl)-5-methoxy-2-methyl-3-indolylacetic acid, reference compound]",–,–,–,–,ED30 (carrageenan edema; po): 5 mg/kg; ED50 (UV erythema; po): 4.5 mg/kg; LD50 at 336 h [1]: 25 mg/kg
